Laboratory results reported in PMC4858212, “Production of the Ramoplanin Activity Analogue by Double Gene Inactivation” (PLoS ONE, 2016).
Values after ≈ are worked out from the molar mass of the structure shown. Read-outs that look alike come from different tables or passages of the source. Numbered stars: 1 amine (or outer) side, 2 acyl side, 3 side chain; on linkers, the order of the positions; unused ones are H or OH. Bridge positions count the residues as written; N and C are the ends. Square brackets hold non-standard residues; d marks the D form. Peptide text beside a SMILES is read from it. * marks the point of attachment. Hpg(αMan(1-2)αMan) = N[C@H](C(=O)O)c1ccc(O[C@H]2O[C@H](CO)[C@@H](O)[C@H](O)[C@@H]2O[C@H]2O[C@H](CO)[C@@H](O)[C@H](O)[C@@H]2O)cc1; Octa(2Z,4E)dienoyl(7-Me) = CC(C)C/C=C/C=C\C(=O)*; X1 = NC(=O)[C@@H](O[*:3])[C@H](N[*:1])C(=O)[*:2]; Hpg(3-Cl) = N[C@H](C(=O)O)c1ccc(O)c(Cl)c1; d(aThr) = C[C@@H](O)[C@@H](N)C(=O)O; dHpg = N[C@@H](C(=O)O)c1ccc(O)cc1; Hpg = N[C@H](C(=O)O)c1ccc(O)cc1; aThr = C[C@H](O)[C@H](N)C(=O)O; dOrn = NCCC[C@@H](N)C(=O)O

Legend:
[1] = system: Enterococcus faecalis ATCC29212
Experimental: (§1) The activies of ramoplanin and its analogs against MRSA and VRE were determined using a liquid microdilution method. MIC values were detected according to the CLSI guidelines. ATCC 25923 (methicillin-sensitive Staphylococcus aureus, MSSA), ATCC 43300 (methicillin-resistant Staphylococcus aureus, MRSA), ATCC 29212 (Enterococcus faecalis) and ATCC 51299 (vancomycin-resistant Enterococcus faecalis, VRE) were employed in this study. Ramoplanin and its analogs were dissolved in 30% methyl alcohol, which was also used as the negative control during the serial tests.
(§2) Antibacterial activities of purified deschlororamoplanin A2 aglycone were compared with ramoplanin A2 and ramoplanin A2 aglycone. The MICs of ramoplanin A2, ramoplanin A2 aglycone and deschlororamoplanin A2 aglycone against ATCC 25923 (methicillin-sensitive Staphylococcus aureus, MSSA), ATCC 43300 (methicillin-resistant Staphylococcus aureus, MRSA), ATCC 29212 (Enterococcus faecalis) and ATCC 51299 (vancomycin-resistant Enterococcus faecalis, VRE) were determined.

[2] = system: Enterococcus faecalis ATCC51299
Experimental: as §1, §2

[3] = system: Staphylococcus aureus ATCC43300
Experimental: as §1, §2

[4] = system: Staphylococcus aureus ATCC25923
Experimental: as §1, §2

Row | Molecule | MIC ([1]; Enterococcus faecalis ATCC29212, liquid microdilution, CLSI guidelines, compounds dissolved in 30% methyl alcohol) | MIC ([2]; Enterococcus faecalis ATCC51299 (vancomycin-resistant, VRE), liquid microdilution, CLSI guidelines, compounds dissolved in 30% methyl alcohol) | MIC ([3]; Staphylococcus aureus ATCC43300 (methicillin-resistant, MRSA), liquid microdilution, CLSI guidelines, compounds dissolved in 30% methyl alcohol) | MIC ([4]; Staphylococcus aureus ATCC25923 (methicillin-sensitive, MSSA), liquid microdilution, CLSI guidelines, compounds dissolved in 30% methyl alcohol) | MIC ([1]; ATCC29212) | MIC ([2]; ATCC51299) | MIC ([3]; ATCC43300) | MIC ([4]; ATCC25923)
1 | Enduracidin | 8 µg/mL | 8 µg/mL | 8 µg/mL | 8 µg/mL | – | – | – | –
2 | CC(C)C/C=C/C=C\C(=O)N[C@@H](CC(N)=O)C(=O)N[C@@H]1C(=O)N[C@H](c2ccc(O)cc2)C(=O)N[C@H](CCCN)C(=O)N[C@H]([C@@H](C)O)C(=O)N[C@@H](c2ccc(O)cc2)C(=O)N[C@H](c2ccc(O)cc2)C(=O)N[C@@H]([C@H](C)O)C(=O)N[C@@H](Cc2ccccc2)C(=O)N[C@H](CCCN)C(=O)N[C@@H](c2ccc(O[C@H]3O[C@H](CO)[C@@H](O)[C@H](O)[C@@H]3O[C@H]3O[C@H](CO)[C@@H](O)[C@H](O)[C@@H]3O)cc2)C(=O)N[C@H]([C@@H](C)O)C(=O)N[C@@H](c2ccc(O)cc2)C(=O)NCC(=O)N[C@@H](CC(C)C)C(=O)N[C@H](C)C(=O)N[C@@H](c2ccc(O)cc2)C(=O)O[C@@H]1C(N)=O [Deschlororamoplanin A2] ({Octa(2Z,4E)dienoyl(7-Me)}-N[X1][dHpg][dOrn][d(aThr)][Hpg][dHpg][aThr]F[dOrn][Hpg(αMan(1-2)αMan)][d(aThr)][Hpg]GL[dA][Hpg]; ester 2-C) | – | – | – | – | 1 µg/mL (≈ 0.397 µM) | 1 µg/mL (≈ 0.397 µM) | 2 µg/mL (≈ 0.794 µM) | 2 µg/mL (≈ 0.794 µM)
3 | CC(C)C/C=C/C=C\C(=O)N[C@@H](CC(N)=O)C(=O)N[C@@H]1C(=O)N[C@H](c2ccc(O)cc2)C(=O)N[C@H](CCCN)C(=O)N[C@H]([C@@H](C)O)C(=O)N[C@@H](c2ccc(O)cc2)C(=O)N[C@H](c2ccc(O)cc2)C(=O)N[C@@H]([C@H](C)O)C(=O)N[C@@H](Cc2ccccc2)C(=O)N[C@H](CCCN)C(=O)N[C@@H](c2ccc(O[C@H]3O[C@H](CO)[C@@H](O)[C@H](O)[C@@H]3O[C@H]3O[C@H](CO)[C@@H](O)[C@H](O)[C@@H]3O)cc2)C(=O)N[C@H]([C@@H](C)O)C(=O)N[C@@H](c2ccc(O)cc2)C(=O)NCC(=O)N[C@@H](CC(C)C)C(=O)N[C@H](C)C(=O)N[C@@H](c2ccc(O)c(Cl)c2)C(=O)O[C@@H]1C(N)=O [Ramoplanin A2] ({Octa(2Z,4E)dienoyl(7-Me)}-N[X1][dHpg][dOrn][d(aThr)][Hpg][dHpg][aThr]F[dOrn][Hpg(αMan(1-2)αMan)][d(aThr)][Hpg]GL[dA][Hpg(3-Cl)]; ester 2-C) | – | – | – | – | 1 µg/mL (≈ 0.392 µM) | 1 µg/mL (≈ 0.392 µM) | 4 µg/mL (≈ 1.57 µM) | 2 µg/mL (≈ 0.783 µM)
4 | CC(C)C/C=C/C=C\C(=O)N[C@@H](CC(N)=O)C(=O)N[C@@H]1C(=O)N[C@H](c2ccc(O)cc2)C(=O)N[C@H](CCCN)C(=O)N[C@H]([C@@H](C)O)C(=O)N[C@@H](c2ccc(O)cc2)C(=O)N[C@H](c2ccc(O)cc2)C(=O)N[C@@H]([C@H](C)O)C(=O)N[C@@H](Cc2ccccc2)C(=O)N[C@H](CCCN)C(=O)N[C@@H](c2ccc(O)cc2)C(=O)N[C@H]([C@@H](C)O)C(=O)N[C@@H](c2ccc(O)cc2)C(=O)NCC(=O)N[C@@H](CC(C)C)C(=O)N[C@H](C)C(=O)N[C@@H](c2ccc(O)cc2)C(=O)O[C@@H]1C(N)=O [Deschlororamoplanin A2 aglycone] ({Octa(2Z,4E)dienoyl(7-Me)}-N[X1][dHpg][dOrn][d(aThr)][Hpg][dHpg][aThr]F[dOrn][Hpg][d(aThr)][Hpg]GL[dA][Hpg]; ester 2-C) | – | – | – | – | 1 µg/mL (≈ 0.456 µM) | 1 µg/mL (≈ 0.456 µM) | 4 µg/mL (≈ 1.82 µM) | 2 µg/mL (≈ 0.911 µM)
5 | CC(C)C/C=C/C=C\C(=O)N[C@@H](CC(N)=O)C(=O)N[C@@H]1C(=O)N[C@H](c2ccc(O)cc2)C(=O)N[C@H](CCCN)C(=O)N[C@H]([C@@H](C)O)C(=O)N[C@@H](c2ccc(O)cc2)C(=O)N[C@H](c2ccc(O)cc2)C(=O)N[C@@H]([C@H](C)O)C(=O)N[C@@H](Cc2ccccc2)C(=O)N[C@H](CCCN)C(=O)N[C@@H](c2ccc(O)cc2)C(=O)N[C@H]([C@@H](C)O)C(=O)N[C@@H](c2ccc(O)cc2)C(=O)NCC(=O)N[C@@H](CC(C)C)C(=O)N[C@H](C)C(=O)N[C@@H](c2ccc(O)c(Cl)c2)C(=O)O[C@@H]1C(N)=O [Ramoplanin A2 aglycone] ({Octa(2Z,4E)dienoyl(7-Me)}-N[X1][dHpg][dOrn][d(aThr)][Hpg][dHpg][aThr]F[dOrn][Hpg][d(aThr)][Hpg]GL[dA][Hpg(3-Cl)]; ester 2-C) | – | – | – | – | 0.5 µg/mL (≈ 0.224 µM) | 1 µg/mL (≈ 0.448 µM) | 2 µg/mL (≈ 0.897 µM) | 2 µg/mL (≈ 0.897 µM)
